Marks after values point to notes of the source that are not given here.
Experiments:
ferroportin (Fpn) = biological target: T1, ferroportin (Fpn) (Mus musculus, UniProt Q9JHI9); assay: Hepcidin Internalization Assay (J774); format: cell-based; details: average (AVE) of multiple measurements; TMR-hepcidin 25 nM, J774 cells
T1 construct: host or cells: J774 mouse macrophage cell line, Fe(III)-NTA induced
T1 sequence (Q9JHI9 1-570): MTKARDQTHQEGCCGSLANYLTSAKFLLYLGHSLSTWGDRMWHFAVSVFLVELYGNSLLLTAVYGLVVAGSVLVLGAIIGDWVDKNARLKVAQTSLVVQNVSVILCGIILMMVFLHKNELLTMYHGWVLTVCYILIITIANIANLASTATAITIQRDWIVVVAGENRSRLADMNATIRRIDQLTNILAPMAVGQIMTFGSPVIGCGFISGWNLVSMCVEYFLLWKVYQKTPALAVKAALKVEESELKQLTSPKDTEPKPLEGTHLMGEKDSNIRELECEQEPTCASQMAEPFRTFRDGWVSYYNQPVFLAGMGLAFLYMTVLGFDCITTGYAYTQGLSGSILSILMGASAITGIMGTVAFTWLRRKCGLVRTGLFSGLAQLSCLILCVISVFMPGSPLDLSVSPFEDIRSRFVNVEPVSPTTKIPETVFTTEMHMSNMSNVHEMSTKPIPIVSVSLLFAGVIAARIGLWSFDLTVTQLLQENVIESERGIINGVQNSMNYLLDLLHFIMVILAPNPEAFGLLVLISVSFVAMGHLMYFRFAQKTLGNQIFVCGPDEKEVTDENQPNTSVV
Source text: This cellular assay allows quantification of the binding of hepcidin to ferroportin (Fpn) through microscopic detection of internalization of a fluorescently labeled hepcidin into J774 cells. […] Binding of hepcidin to Fpn triggers internalization and degradation of both hepcidin and Fpn. However, the TMR (6-carboxytetramethylrhodamine) fluorophore attached to hepcidin remains associated with the cell after degradation of the hepcidin peptide backbone. Therefore, microscopic detection of cell-associated TMR fluorescence is a measure of hepcidin binding to Fpn and internalization of hepcidin and Fpn. If TMR-hepcidin is prevented from binding to Fpn, cellular TMR fluorescence remains low (Dürrenberger et al, 2013). The effect of small molecular weight Fpn inhibitor compounds in this assay was evaluated in vitro as described below.
After overnight incubation, cells were washed 3 times with pre-warmed DMEM w/o phenol red, 30 μl/well of DMEM w/o phenol red was added after the final wash and 10 μl/well of dilution series of test compounds were added in triplicates. […] Cells were incubated in a total volume of 50 μl at 37° C. with 5% CO2 for 2 hours, then Hoechst 33342 dye was added to a final concentration of 0.5 μg/ml to stain nuclei and further incubated for 10 min. at 37° C. with 5% CO2. Cells were washed 3 times with PBS and fixed in 100 μl of 4% paraformaldehyde in PBS for 15 min. at room temperature. After removal of the paraformaldehyde solution, cells were washed 3 times with PBS leaving 100 μl per well and the plates were sealed with foil plate seal. TMR (530-550 nm excitation/575-625 nm emission/400 ms exposure time) and Hoechst 33342 (360-370 nm excitation/420-460 nm emission/10 ms exposure time) fluorescence images were acquired using a ScanR plate imager (Olympus) with a 20× high NA objective. Four pictures were acquired per well and fluorescence channel covering ca. 1500 cells per well. The acquired image data was analysed with the ScanR image analysis software. Image analysis included detection of nuclei (Hoechst 33342 fluorescence), identification of cell-associated regions, application of a virtual channel and thresholding for rolling-ball-type background reduction, followed by application of the Sum(Mean) algorithm to measure the TMR fluorescence associated with cells as a quantitative measure for internalized TMR-hepcidin. IC50 values were calculated with the Sum(Mean) raw data using “log(inhibitor) vs. response” curve fitting of Prism 5 software (GraphPad Software Inc., version 5.02).

b2m−/− mice = assay: Correction of hyperferremia in beta2-microglobulin deficient mice; format: in vivo, mouse; details: for effect on elevated serum iron: b2m−/− mice, 50 mg/kg p.o. for 3 h
Protocol: Female and male homozygous b2m−/− mice were supplied from Jackson Laboratories (B6.129P2-B2mtm1Unc/J, Stock Number: 002087) at age of 6 to 7 weeks and fed standard diet (Harlan Provimi Kliba 3436) ad libitum. Age and gender matched WT C57BL/6 mice are supplied by Charles River. To study the acute effects of ferroportin (Fpn) inhibitors in iron overload b2m−/− mice were treated with compounds or the corresponding amount of vehicle at a volume of 10 ml/kg body weight. Fpn inhibitor compounds were formulated in 0.5% methylcellulose/water or 20% cremophor EL/water and dosed p.o. in mice at 50 mg/kg body weight. WT controls received only vehicle. Three hours later, mice were pre-terminally anesthetized in isoflurane chambers and blood was collected by retro-orbital bleeding. Mice were sacrificed by cervical dislocation and spleens, livers and duodena were harvested and used for biomarker analysis. All experiments have been performed in compliance with license approved by the responsible veterinarian authorities. Serum was isolated by centrifugation of blood into gel-containing microtainers (BD Biosciences) and serum iron was determined by the MULTIGENT Iron assay (Abbott Diagnostics, Cat. 6K95). Four to nine mice per group were used and one-way ANOVA with Bonferroni's multiple comparison test was applied to analyze the statistical differences between the experimental groups.
Blood was collected 1 (#) or 3 (##) hours after oral administration of the indicated doses of Fpn inhibitors to beta2-microglobulin deficient mice and serum iron concentrations were measured. Relative reduction (%) of serum iron levels are shown, which were calculated by subtracting the average of serum iron values of animals dosed with the Fpn inhibitor from that of vehicle-treated animals. The difference in average serum iron values between vehicle and compound treated groups was then divided by the average of serum iron of the vehicle control group and listed as percentage.

Hbb th3/+ mice = assay: Improvement of anemia, ineffective erythropoiesis and iron overload in a mouse model of β-thalassemia intermedia; format: in vivo; details: % change to vehicle; for Decrease in serum iron: dosed for 3 h
Protocol: The efficacy of Fpn inhibitors was investigated using a mouse model of transfusion-independent β-thalassemia. Mice with heterozygous deletion of β1 and β2 globin genes (called Hbb th3/+ mice) develop transfusion-independent anemia, ineffective erythropoiesis, splenomegaly and secondary iron overload in spleen, liver and kidneys. […] Hbb th3/+ mice were dosed twice daily with either compound at 20 or 60 mg/kg or with methylcellulose (10 ml/kg, Sigma, Cat. 274429) as a vehicle. Between both doses mice had access to drinking water supplemented with 1 mM ^58Fe(II)-sulfate (Vifor Pharma, Batch No. ROR 3096) and 10 mM ascorbic acid (Sigma, Cat. 795437) for 6 h. […] Water without ^58Fe(II)-Sulfate and ascorbic acid was provided during the remaining 18 h. Dosing of Fpn inhibitors or vehicle followed by exposure to iron-containing water was repeated for 20 to 46 days in individual experiments.
Additional hematologic parameters were measured in terminal blood using automated blood cell analyzer.
The inefficient erythropoiesis of Hbb th3/+ mice causes excessive proliferation of erythroid precursors in spleen, leading to splenomegaly.
Erythroferrone is produced by erythrocyte precursors proliferating massively in spleens of Hbb th3/+ mice as a consequence of extramedullar erythropoiesis.
Increased iron demand due to inefficient erythropoiesis and chronically low hepcidin levels in patients with thalassemia causes organ iron loading and associated morbidities, such as hepatocellular carcinoma and heart failure (Rivella S. Haematologica, 2015). Hbb th3/+ mice absorb excessive amounts of iron as a consequence of inadequately low hepcidin levels relative to the high iron content in liver, spleen and kidney and increased ferroportin expression in duodenum (Gardenghi S., Blood, 2007).
Additionally, reactive oxygen species (ROS) were detected in bone marrow cells using a fluorescent indicator, CM-H2DCFDA (Thermo Fisher Scientific, Cat. C6827).
Table 10. Efficacy of Ferroportin inhibitors in a mouse model of thalassemia intermedia (Hbb th3/+ mice). […] Data are expressed as difference to the vehicle control group for hemoglobin and as % change to the vehicle control group for all other parameter shown

[1] = male b2m−/− mice, Dose 60 mg/kg oral, blood collected 3 (##) hours after dosing
[2] = 20 mg/kg twice daily for 20-46 days
[3] = 60 mg/kg twice daily for 20-46 days

For O=C(NCc1ncccc1F)c1cnc(C2CN(CCc3nc4c(F)cccc4[nH]3)C2)o1 [Example 3], the IC50 (ferroportin (Fpn)) was 170 nM.

O=C(NCc1ncccc1F)c1cnc(CCNCc2nc3ccccc3[nH]2)o1 [Example 4] showed an IC50 (ferroportin (Fpn)) of 155 nM.

In the case of O=C(NCc1ncccc1F)c1cnc(C2CN(CCc3nc4cc(F)ccc4[nH]3)C2)o1 [Example 5], the IC50 (ferroportin (Fpn)) is reported as 63 nM.

Work on Cc1nc(CCNCCc2nc3ccccc3[nH]2)sc1C(=O)NCc1ncccc1F [Example 7] yielded an IC50 (ferroportin (Fpn)) of 400 nM.

Work on O=C(NCc1ncccc1F)c1cnc(CCNCCc2nc3ccccc3[nH]2)s1 [Example 8] yielded an IC50 (ferroportin (Fpn)) of 240 nM.

O=C(NCc1ncccc1F)c1csc(CCNCCc2nc3ccccc3[nH]2)n1 [Example 94] was tested, and the “Serum Iron Reduction (%)” value (b2m−/− mice; female b2m−/− mice, Dose 60 mg/kg oral, blood collected 3 (##) hours after dosing) was 47% and the “Serum Iron Reduction (%)” value (b2m−/− mice; [1]) was 67%.

In the case of O=C(NCc1ncccc1F)c1coc(CCNCCc2nc3ccccc3[nH]2)n1 [Example 127], the “Serum Iron Reduction (%)” value (b2m−/− mice; female b2m−/− mice, Dose 20 mg/kg oral, sampling time not marked) is reported as 47*** %, the “Serum Iron Reduction (%)” value (b2m−/− mice; female b2m−/− mice, Dose 60 mg/kg oral, sampling time not marked) is reported as 74*** % and the “Serum Iron Reduction (%)” value (b2m−/− mice; male b2m−/− mice, Dose 60 mg/kg oral, sampling time not marked) is reported as 83** %. The “Decrease in 58Fe spleen iron content” value (Hbb th3/+ mice; [2]) was 43%, the “Decrease in RDW” value (Hbb th3/+ mice; [2]) was 19% and the “Decrease in serum erythropoietin” value (Hbb th3/+ mice; [2]) was 32%. The Increase in hematocrit (Hbb th3/+ mice; [2]) was 3%, the “Prevention of liver 58Fe loading” value (Hbb th3/+ mice; [2]) was 39% and the “Decrease in serum iron” value (Hbb th3/+ mice; 20 mg/kg) was 68%. For the same compound, the “Decrease in 58Fe spleen iron content” value (Hbb th3/+ mice; [3]) was 68%, the “Decrease in RDW” value (Hbb th3/+ mice; [3]) was 25% and the “Decrease in serum erythropoietin” value (Hbb th3/+ mice; [3]) was 33%. The Increase in hematocrit (Hbb th3/+ mice; [3]) was 20%, the “Prevention of liver 58Fe loading” value (Hbb th3/+ mice; [3]) was 59% and the “Decrease in serum iron” value (Hbb th3/+ mice; 60 mg/kg) was 81%.

With O=C(NCc1ncccc1F)c1coc(C2CN(CCc3nc4ccccc4[nH]3)C2)n1 [Example 208] the “Serum Iron Reduction (%)” value (b2m−/− mice; female b2m−/− mice, Dose 20 mg/kg oral, blood collected 3 (##) hours after dosing) was 9%, the “Serum Iron Reduction (%)” value (b2m−/− mice; male b2m−/− mice, Dose 20 mg/kg oral, blood collected 3 (##) hours after dosing) was 44% and the “Serum Iron Reduction (%)” value (b2m−/− mice; [1]) was 67** %.

Compound O=C(NCc1ncccc1F)c1csc(CCN2Cc3nc4ccccc4n3CC2=O)n1 [Example 275] has an IC50 (ferroportin (Fpn)) of 26000 nM.

O=C(NCc1ncccc1F)c1csc(CCN2CCn3c(nc4ccccc43)C2)n1 [Example 276] showed an IC50 (ferroportin (Fpn)) of 27200 nM.

With O=C(NCc1ccccn1)c1noc(CCNCCc2nc3ccccc3[nH]2)n1 [Example 278] the IC50 (ferroportin (Fpn)) was 476 nM.

O=C(NCc1ncccc1F)c1noc(CCNCCc2nc3ccccc3[nH]2)n1 [Example 279] showed an IC50 (ferroportin (Fpn)) of 2010 nM.

In the case of O=C(NCc1ncccc1F)c1cnc(C2CN(Cc3nc4ccccc4[nH]3)C2)o1 [Example 280], the IC50 (ferroportin (Fpn)) is reported as 50000 nM.

With O=C(NCc1ncccc1F)c1csc(CCNCc2nc3ccccc3[nH]2)n1 [Example Compound No. 40, 2-{2-[(1H-1,3-benzodiazol-2-ylmethyl)amino]ethyl}-N-[(3-fluoropyridin-2-yl)methyl]-1,3-thiazole-4-carboxamide] the “effect on elevated serum iron” value (b2m−/− mice) was “corrected the elevated serum iron to the levels observed in WT controls”.

O=C(NCc1ncccc1F)c1csc(CCNCCc2nc3ccccc3[nH]2)n1 [Example Compound No. 94, 2-(2-{[2-(1H-1,3-benzodiazol-2-yl)ethyl]amino}ethyl)-N-[(3-fluoropyridin-2-yl)methyl]-1,3-thiazole-4-carboxamide] was tested, and the “effect on elevated serum iron” value (b2m−/− mice) was “corrected the elevated serum iron to the levels observed in WT controls”.
